Laboratory results reported in PubChem BioAssay AID330 (DTP/NCI, 2004).
“And” between values parts separate entries of the source, which are not always exact repeats. Identical values can stand only once. Inconclusive results and toxic doses are left out. How the source made its calls: active means survival T/C of 150% or more; inactive means T/C below 125% in these data.

System: P388 leukemia ip, CD2F1 mice, survival T/C
Test: NCI In Vivo Anticancer Drug Screen. Data for tumor model P388 Leukemia (intraperitoneal) in CD2F1 (CDF1) mice
Conditions: endpoint: median survival time, higher = longer survival
Method in brief: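 Mice carrying the transplanted tumor received test compound or vehicle. Survival was recorded in each group, and the value is the treated-group measurement divided by that of the vehicle-treated control group.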

[1] = dose: 100.0 mg/kg/injection, schedule: Q04DX003 (ip), vehicle: saline with Tween-80
[2] = dose: 200.0 mg/kg/injection, schedule: Q04DX003 (ip), vehicle: saline with Tween-80
[3] = dose: 25.0 mg/kg/injection, schedule: Q01DX009 (ip), vehicle: saline with Tween-80
[4] = dose: 50.0 mg/kg/injection, schedule: Q01DX009 (ip), vehicle: saline with Tween-80
[5] = dose: 100.0 mg/kg/injection, schedule: Q01DX009 (ip), vehicle: saline with Tween-80
[6] = dose: 50.0 mg/kg/injection, schedule: Q01DX005 (ip), vehicle: saline with Tween-80
[7] = dose: 30.0 mg/kg/injection, schedule: Q01DX005 (ip), vehicle: saline with Tween-80
[8] = dose: 60.0 mg/kg/injection, schedule: Q01DX005 (ip), vehicle: saline with Tween-80
[9] = dose: 400.0 mg/kg/injection, schedule: Q04DX003 (ip), vehicle: saline with Tween-80
[10] = dose: 120.0 mg/kg/injection, schedule: Q01DX005 (ip), vehicle: saline with Tween-80
[11] = dose: 240.0 mg/kg/injection, schedule: Q01DX005 (ip), vehicle: saline with Tween-80

Measured: T/C

Cc1ccc(S(=O)(=O)NC(=O)c2cnc(N(C)C)s2)cc1
inactive: dose: 50.0 mg/kg/injection, schedule: Q01DX005 (ip), vehicle: Klucel (hydroxypropylcellulose) (HPC) 104 % of control | dose: 100.0 mg/kg/injection, schedule: Q01DX005 (ip), vehicle: Klucel (hydroxypropylcellulose) (HPC) 101 % of control | dose: 200.0 mg/kg/injection, schedule: Q01DX005 (ip), vehicle: Klucel (hydroxypropylcellulose) (HPC) 107 % of control

CCN(CC)c1nc(Cl)nc(NC(C)C)n1
inactive: [1] 100 % of control | [2] 95 % of control

CC(C)(C)N=O
inactive: [3] 104 % of control | [4] 103 % of control | dose: 100.0 mg/kg/injection, schedule: Q01DX001 (ip), vehicle: saline with Tween-80 100 % of control and 106 % of control | [5] 111 % of control | dose: 200.0 mg/kg/injection, schedule: Q01DX001 (ip), vehicle: saline with Tween-80 100 % of control and 106 % of control and 109 % of control | dose: 400.0 mg/kg/injection, schedule: Q01DX001 (ip), vehicle: saline with Tween-80 105 % of control and 119 % of control | dose: 800.0 mg/kg/injection, schedule: Q01DX001 (ip), vehicle: saline with Tween-80 89 % of control

COC(=O)NC(=O)CCC(=O)O
inactive: dose: 12.5 mg/kg/injection, schedule: Q01DX009 (ip), vehicle: saline 104 % of control | dose: 25.0 mg/kg/injection, schedule: Q01DX009 (ip), vehicle: saline 97 % of control | dose: 50.0 mg/kg/injection, schedule: Q01DX009 (ip), vehicle: saline 100 % of control and 103 % of control

C/C=C/COc1cc2c(cc1C(C)c1ccc(OC)cc1)OCO2 (stereo not drawn)
inactive: [6] 107 % of control | dose: 100.0 mg/kg/injection, schedule: Q01DX005 (ip), vehicle: saline with Tween-80 106 % of control | dose: 200.0 mg/kg/injection, schedule: Q01DX005 (ip), vehicle: saline with Tween-80 119 % of control

CC1=Nc2nc(=NCCCN(C)C)nc3cccc(n23)N1
inactive: dose: 15.0 mg/kg/injection, schedule: Q01DX005 (ip), vehicle: saline with Tween-80 99 % of control | [7] 100 % of control | [8] 104 % of control and 97 % of control

COc1ccc(C2CCc3cc4c(cc3C2=O)OCO4)cc1OC (stereo not drawn)
inactive: [2] 90 % of control

O=C(O)CCc1nc(-c2ccccc2)ncc1C(=O)O
inactive: [1] 100 % of control | [2] 100 % of control | [9] 98 % of control

Cc1cc(C(C)(C)C)c(O)c(C(C)(C)C)c1
inactive: dose: 100.0 mg/kg/injection, schedule: Q01DX009 (ip), vehicle: distilled water + Tween-80 + alcohol 104 % of control | dose: 200.0 mg/kg/injection, schedule: Q01DX009 (ip), vehicle: distilled water + Tween-80 + alcohol 102 % of control | dose: 400.0 mg/kg/injection, schedule: Q01DX009 (ip), vehicle: distilled water + Tween-80 + alcohol 98 % of control

CCOC(=O)N(C)C(=O)CN(C=O)c1ncc([N+](=O)[O-])s1
inactive: dose: 100.0 mg/kg/injection, schedule: Q01DX001 (ip), vehicle: saline 101 % of control | dose: 200.0 mg/kg/injection, schedule: Q01DX001 (ip), vehicle: saline 101 % of control | dose: 400.0 mg/kg/injection, schedule: Q01DX001 (ip), vehicle: saline 100 % of control

O=[N+]([O-])c1cc(I)c(O)c(/C=N/NS(=O)(=O)c2ccc(F)cc2)c1
inactive: [8] 104 % of control | [10] 105 % of control | [11] 101 % of control

C/C(=N\N=C(\[Se])N(C)C)c1ccccn1
inactive: dose: 12.5 mg/kg/injection, schedule: Q04DX003 (ip), vehicle: saline with Tween-80 106 % of control | dose: 25.0 mg/kg/injection, schedule: Q04DX003 (ip), vehicle: saline with Tween-80 106 % of control | dose: 50.0 mg/kg/injection, schedule: Q04DX003 (ip), vehicle: saline with Tween-80 106 % of control

CC1=[N+]([O-])[N+]([O-])=C(c2ccccc2)C1=O
inactive: [3] 107 % of control | [4] 92 % of control | [5] 107 % of control

COc1ccc2nc3cc(Cl)ccc3c(NCCCNCCCCNCCCNc3c4ccc(Cl)cc4nc4ccc(OC)nc34)c2n1
inactive: dose: 0.93 mg/kg/injection, schedule: Q01DX005 (ip), vehicle: saline with Tween-80 100 % of control | dose: 1.87 mg/kg/injection, schedule: Q01DX005 (ip), vehicle: saline with Tween-80 106 % of control | dose: 3.75 mg/kg/injection, schedule: Q01DX005 (ip), vehicle: saline with Tween-80 121 % of control

COc1ccc(CNC(=O)C2C(=O)C(=O)N(Cc3ccc(OC)c(OC)c3)C2=O)cc1OC (stereo not drawn)
inactive: dose: 50.0 mg/kg/injection, schedule: Q01DX009 (ip), vehicle: Klucel (hydroxypropylcellulose) (HPC) 105 % of control | dose: 100.0 mg/kg/injection, schedule: Q01DX009 (ip), vehicle: Klucel (hydroxypropylcellulose) (HPC) 96 % of control | dose: 200.0 mg/kg/injection, schedule: Q01DX009 (ip), vehicle: Klucel (hydroxypropylcellulose) (HPC) 103 % of control

CCOC(=O)Nc1cc(OC)cc2ccc(C)nc12
inactive: dose: 12.5 mg/kg/injection, schedule: Q01DX009 (ip), vehicle: other 88 % of control | dose: 50.0 mg/kg/injection, schedule: Q01DX009 (ip), vehicle: other 98 % of control | dose: 100.0 mg/kg/injection, schedule: Q01DX009 (ip), vehicle: other 99 % of control | dose: 200.0 mg/kg/injection, schedule: Q01DX009 (ip), vehicle: other 98 % of control

COc1cccc2c1C(=O)c1c(O)c3c(c(O)c1C2=O)C[C@@](O)(C(C)=O)C[C@@H]3OC1CC(N=CCCCC=NC2CC(O[C@H]3C[C@](O)(C(C)=O)Cc4c(O)c5c(c(O)c43)C(=O)c3c(OC)cccc3C5=O)OC(C)C2O)C(O)C(C)O1 (stereo partly drawn)
inactive: dose: 0.5 mg/kg/injection, schedule: Q04DX003 (ip), vehicle: distilled water + Tween-80 104 % of control | dose: 1.0 mg/kg/injection, schedule: Q04DX003 (ip), vehicle: distilled water + Tween-80 110 % of control | dose: 2.0 mg/kg/injection, schedule: Q04DX003 (ip), vehicle: distilled water + Tween-80 123 % of control | dose: 16.0 mg/kg/injection, schedule: Q04DX003 (ip), vehicle: distilled water + Tween-80 122 % of control

O=c1c2ccccc2[nH]c2cc3c(=O)n4ccccc4nc3cc12
inactive: [7] 94 % of control | [8] 101 % of control and 91 % of control | [10] 93 % of control | [11] 93 % of control

N#CSCc1cc(Cl)c(Cl)cc1Cl
inactive: dose: 25.0 mg/kg/injection, schedule: Q04DX002 (ip), vehicle: saline with Tween-80 106 % of control | dose: 50.0 mg/kg/injection, schedule: Q04DX002 (ip), vehicle: saline with Tween-80 106 % of control | dose: 100.0 mg/kg/injection, schedule: Q04DX002 (ip), vehicle: Klucel (hydroxypropylcellulose) (HPC) 107 % of control | dose: 100.0 mg/kg/injection, schedule: Q04DX002 (ip), vehicle: saline with Tween-80 100 % of control

NC(Cc1ccc[se]1)C(=O)O (stereo not drawn)
inactive: dose: 6.25 mg/kg/injection, schedule: Q01DX005 (ip), vehicle: saline 105 % of control | dose: 12.5 mg/kg/injection, schedule: Q01DX005 (ip), vehicle: saline 99 % of control | dose: 25.0 mg/kg/injection, schedule: Q01DX005 (ip), vehicle: saline with Tween-80 103 % of control | dose: 25.0 mg/kg/injection, schedule: Q01DX005 (ip), vehicle: saline 97 % of control | [6] 94 % of control

CCCCC(CC)COC(OCC(CC)CCCC)C(OCC(CC)CCCC)OCC(CC)CCCC (stereo not drawn)
inactive: [1] 100 % of control | [2] 100 % of control | [9] 100 % of control

CNC(=O)NC1OC(CO)C(O)C1O (stereo not drawn)
inactive: dose: 100.0 mg/kg/injection, schedule: Q01DX001 (ip), vehicle: water 97 % of control | dose: 200.0 mg/kg/injection, schedule: Q01DX001 (ip), vehicle: water 103 % of control | dose: 400.0 mg/kg/injection, schedule: Q01DX001 (ip), vehicle: water 104 % of control
